Experimental findings from PubChem BioAssay AID2060612 (Molecular Pharmacology Branch, DTP, NCI, 2025) are described below.

Where “and” joins values, the source holds several entries; their conditions need not be identical. Equal entries are not always repeated.

For the assay, the system named is 565232-114-T-J1-PDC complex spheroid viability. The experiment in a line: Anticancer human tumor 565232-114-T-J1-PDC patient-derived bladder carcinoma cell line growth inhibition [CLK]. The following applies: for viability, T/C: stronger effect = lower value. In outline:
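Multi-cell-type spheroids combined patient-derived tumor cells with HUVEC endothelial cells and human mesenchymal stem cells. Paired agents were dosed in half-log steps down from about clinical Cmax, or from 10 microM where Cmax was unknown.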

[1] abbreviates: curve of first compound, second compound 0.0316 µM.
Where [2] appears, read: curve of first compound, second compound 0.1 µM.
The mark [3] stands for this setting: curve of first compound, second compound 0.316 µM.
The mark [4] stands for this setting: curve of first compound, second compound 1 µM.
The mark [5] stands for this setting: curve of first compound, second compound 3.16 µM.
[6] abbreviates: curve of first compound, second compound 10 µM.
The mark [7] stands for this setting: second compound 0.0316 µM, first compound 0.0316 µM.
[8] abbreviates: second compound 0.0316 µM, first compound 0.1 µM.
[9] abbreviates: second compound 0.0316 µM, first compound 0.316 µM.
Setting [10] is: second compound 0.0316 µM, first compound 1 µM.
Setting [11] is: second compound 0.1 µM, first compound 0.0316 µM.
Where [12] appears, read: second compound 0.1 µM, first compound 0.1 µM.
[13] abbreviates: second compound 0.1 µM, first compound 0.316 µM.
The mark [14] stands for this setting: second compound 0.1 µM, first compound 1 µM.
[15] abbreviates: second compound 0.316 µM, first compound 0.0316 µM.
The mark [16] stands for this setting: second compound 0.316 µM, first compound 0.1 µM.
Where [17] appears, read: second compound 0.316 µM, first compound 0.316 µM.
[18] abbreviates: second compound 0.316 µM, first compound 1 µM.
[19] abbreviates: second compound 1 µM, first compound 0.0316 µM.
The mark [20] stands for this setting: second compound 1 µM, first compound 0.1 µM.
Where [21] appears, read: second compound 1 µM, first compound 0.316 µM.
Where [22] appears, read: second compound 1 µM, first compound 1 µM.
Setting [23] is: second compound 3.16 µM, first compound 0.0316 µM.
The mark [24] stands for this setting: second compound 3.16 µM, first compound 0.1 µM.
The mark [25] stands for this setting: second compound 3.16 µM, first compound 0.316 µM.
The mark [26] stands for this setting: second compound 3.16 µM, first compound 1 µM.
[27] abbreviates: second compound 10 µM, first compound 0.0316 µM.
Setting [28] is: second compound 10 µM, first compound 0.1 µM.
Setting [29] is: second compound 10 µM, first compound 0.316 µM.
The mark [30] stands for this setting: second compound 10 µM, first compound 1 µM.
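Also: spheroids exposed to compounds for 7 days before readout.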
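For viability, T/C in this document: 100% = DMSO vehicle wells with luminescence normalized to vehicle control.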

One may read the viability, T/C as the result in the treated group divided by that in the control group, in per cent. In general, IC50 refers to the concentration needed to halve the response being measured. As for `C=C(F)C(=O)N1CCN(c2nc(OCC3CCCN3C)nc3c2CCN(c2cccc4cccc(Cl)c24)C3)CC1CC#N` (centres undefined), the viability, T/C is 103% (compound 0.0316 µM); 103% (compound 0.1 µM); 88.9% (compound 0.316 µM); 109% (compound 1 µM); 105% (compound 3.16 µM); 0.24% (compound 10 µM). For the same molecule, the IC50 (curve of compound) stood at 5680 nM.

`CNC(=O)c1ccc(Nc2nc(OC3CCCC3)c3c(-c4ccc5nc(C)oc5c4)c[nH]c3n2)c(OC)c1`: the viability, T/C (compound 0.1 µM) is 54.9% [middle of 12 runs]; the viability, T/C (compound 0.316 µM) is 34.4% [middle of 12 runs]; the viability, T/C (compound 1 µM) was 22.6% [middle of 12 runs]; the viability, T/C (compound 3.16 µM) was 16% [middle of 12 runs]; the viability, T/C (compound 10 µM) is 15.4% [middle of 12 runs]. Besides, the IC50 (compound alone, run of 08/01/2023) is 130 nM [middle of 12 runs].

Regarding `O=c1[nH]cc(F)c(=O)[nH]1` + CN1CCN(c2cc(C(=O)Nc3cc4cc(-c5cnn(C)c5)ccc4cn3)ccn2)CC1, the IC50 is above 10000 nM under setting [1]; above 10000 nM under setting [2]; below 31.6 nM under setting [3]; below 31.6 nM under setting [4]; below 31.6 nM under setting [5]; below 31.6 nM under setting [6]. Also, the viability, T/C reads like this: under setting [7], 95.6%; under setting [8], 77.4%; under setting [9], 105%; under setting [10], 106%; (second compound 0.0316 µM, first compound 3.16 µM) 123%; (second compound 0.0316 µM, first compound 10 µM) 113%. For the same molecule, the viability, T/C reads like this: under setting [11], 90.5%; under setting [12], 83.1%; under setting [13], 101%; under setting [14], 130%; (second compound 0.1 µM, first compound 3.16 µM) 171%; (second compound 0.1 µM, first compound 10 µM) 120%. The viability, T/C under setting [15] is 16.8%; the viability, T/C under setting [16] was 18.7%; the viability, T/C under setting [17] was 22.1%; the viability, T/C under setting [18] was 22.7%; the viability, T/C (second compound 0.316 µM, first compound 3.16 µM) is 19.2%; the viability, T/C (second compound 0.316 µM, first compound 10 µM) was 17.1%. Besides, the viability, T/C under setting [19] is 0.2%; the viability, T/C under setting [20] was 0.42%; the viability, T/C under setting [21] is 0.17%; the viability, T/C under setting [22] was 0.16%; the viability, T/C (second compound 1 µM, first compound 3.16 µM) is 1.57%; the viability, T/C (second compound 1 µM, first compound 10 µM) is 0.22%. The viability, T/C is 0.2% under setting [23]; 0.14% under setting [24]; 1.23% under setting [25]; 0.14% under setting [26]; 1.73% (second compound 3.16 µM, first compound 3.16 µM); 1.38% (second compound 3.16 µM, first compound 10 µM). The viability, T/C is 0.13% under setting [27]; 0.29% under setting [28]; 0.25% under setting [29]; 0.15% under setting [30]; 0.19% (second compound 10 µM, first compound 3.16 µM); 1.01% (second compound 10 µM, first compound 10 µM).

With `CC(C)CC(NC(=O)C(Cc1ccccc1)NC(=O)c1cnccn1)B(O)O` (centres undefined), the viability, T/C was 97.2% and 89.6% (compound 0.000949 µM); 85.3% and 89.2% (compound 0.003 µM); 10.3% and 1.88% (compound 0.00949 µM); 4.99% and 0.69% (compound 0.03 µM); 2.74% and 2.59% (compound 0.0949 µM); 1.61% and 0.54% (compound 0.3 µM). For the same molecule, the IC50 (curve of compound) was 5.16 nM and 5.03 nM.

As to `COc1c(OCCCN2CCOCC2)ccc2c3n(c(=NC(=O)c4cnc(N)nc4)nc12)CCN3` + CNC(=O)c1ccc(Nc2nc(OC3CCCC3)c3c(-c4ccc5nc(C)oc5c4)c[nH]c3n2)c(OC)c1, the IC50 was above 1000 nM under setting [1]; below 3.16 nM under setting [2]; below 3.16 nM under setting [3]; below 3.16 nM under setting [4]; below 3.16 nM under setting [5]; below 3.16 nM under setting [6]. The viability, T/C (second compound 0.0316 µM, first compound 0.00316 µM) is 106%; the viability, T/C (second compound 0.0316 µM, first compound 0.01 µM) is 81.5%; the viability, T/C under setting [7] is 84.9%; the viability, T/C under setting [8] was 94.5%; the viability, T/C under setting [9] is 118%; the viability, T/C under setting [10] was 68.7%. For the same molecule, the viability, T/C (second compound 0.1 µM, first compound 0.00316 µM) is 39.5%; the viability, T/C (second compound 0.1 µM, first compound 0.01 µM) was 38.5%; the viability, T/C under setting [11] was 29.8%; the viability, T/C under setting [12] was 31.7%; the viability, T/C under setting [13] was 22.6%; the viability, T/C under setting [14] is 20.8%. The viability, T/C (second compound 0.316 µM, first compound 0.00316 µM) was 26.9%; the viability, T/C (second compound 0.316 µM, first compound 0.01 µM) is 24.1%; the viability, T/C under setting [15] is 22.4%; the viability, T/C under setting [16] is 18.9%; the viability, T/C under setting [17] is 15.8%; the viability, T/C under setting [18] is 9.27%. Besides, the viability, T/C (second compound 1 µM, first compound 0.00316 µM) was 15.4%; the viability, T/C (second compound 1 µM, first compound 0.01 µM) was 16.9%; the viability, T/C under setting [19] was 14.5%; the viability, T/C under setting [20] was 8.97%; the viability, T/C under setting [21] was 5.69%; the viability, T/C under setting [22] is 3.61%. The viability, T/C reads like this: (second compound 3.16 µM, first compound 0.00316 µM) 15.6%; (second compound 3.16 µM, first compound 0.01 µM) 9.18%; under setting [23], 8.92%; under setting [24], 4.99%; under setting [25], 5.15%; under setting [26], 1.71%. In addition, the viability, T/C reads like this: (second compound 10 µM, first compound 0.00316 µM) 12.3%; (second compound 10 µM, first compound 0.01 µM) 10.3%; under setting [27], 5.74%; under setting [28], 5.45%; under setting [29], 3.3%; under setting [30], 1.73%.
